The values that follow come from patent publication US20220338463A1, “METHOD OF PRODUCING LYOPHILIZED CELLS” (LONZA LTD, priority 2019, published 2022).

Data set [1] deals with SK-N-AS cells. Nature of the data set: ALAMARBLUE assay of plated cells after freeze-thaw of suspended cells. It counts as cell-based, Human. The following applies: for cell viability after freeze-thawing on decreasing the concentration of PBS: hypotonic conditions, FIG. 11. The method, then:
The cells were plated on a 96-well plate in a density of 2.25×10^5 cells/cm^2 and diluted with medium to the final volume of 200 μL inside the well. The cells were then incubated overnight at 37° C. and 5% CO2 so they attached to the wells. Cells were stained with 10 μL ALAMARBLUE® reagent per 100 μL of medium in the well and incubated for 4 h. Same procedure was applied for a blank, where 200 μL of medium was pipetted into the well. After that, 100 μL of solution above the cells was pipetted into a black non-transparent 96-well plate and fluorescence was measured with SPECTRAMAX® plate reader (excitation λ=550 nm, emission λ=590 nm).
(§1) Formulations were prepared in 50 mL Falcon tubes and subsequently sterile filtered under the bench with 0.22 μm syringe filter and a syringe. Sterile formulations were then stored at 2-8° C. until further use. 0.5 mL of cell suspension in either PBS or medium at a concentration of 20*10^6 cells/mL was mixed with 0.5 mL of pre-warmed sterile formulation. Vials were then stoppered and stored in a −80° C. freezer for minimum overnight.
(§2) Subsequently, the vials were taken from the −80° C. freezer and rapidly thawed in the water bath at 37° C. Immediately after thawing, 0.1 mL of cell suspension was 2× diluted with medium and counted with NucleoCounter to obtain cell viability [%] and concentration inside the vial. Suspension was then plated on a 96-well plate so the cell density was 2.25×10^5 cells/cm^2 (growth area in one well is 0.32 cm^2). Calculation of the volume (V) of cell suspension is according to following equation: […]
Calculated volume was diluted inside of the well with cell growth medium, so that the final volume was 0.2 mL. 96-well plate with samples was incubated overnight in the incubator and ALAMARBLUE® assay was performed the morning after (if not stated differently in the results section).
ALAMARBLUE® on the other hand, contains a reagent called resazurin. This is a non-toxic, blue, weakly fluorescent dye, which can permeate cell membranes. Resazurin undergoes a metabolic reduction inside of the cell to a form called resorufin, which is pink and highly fluorescent. The intensity of fluorescence is proportional to the amount of cells that are able to metabolize resazurin and are thus considered viable.
(In general: Resazurin is reduced to fluorescent resorufin, in cell work by metabolically active cells.)

Data set [2] in a line: Freeze drying, visual inspection of lyophilization cake. Format: physicochemical. The note with it: 1M propylene glycol and 0.1M trehalose formulation; FIG. 21B. On the procedure: Freeze drying was performed with the SP Scientific's LyoStar 3 pilot scale freeze dryer with 0.4 m^2 of shelf surface area. Vials were filled and loaded on a tray under the biosafety bench and then loaded in the freeze dryer. Vials were left on the tray inside the lyophilizer, to avoid any spillage of biomaterial inside the chamber in case of a vial breakage.
Employed conservative lyophilization programs (Table 3 and Table 4) included freezing and primary drying steps. Since it is known from literature, that complete elimination of water and higher temperatures employed during secondary drying negatively impact the cell survival during process, the step was omitted. The product temperature was monitored by including a thermocouple inside the vial, so that its tip touched the bottom of the vial. After unloading of the vials from the lyophilizer, they were visually inspected.

Data set [3] relates to SK-N-AS cells. Nature of the data set: DAPI/acridine orange viability (NUCLEOCOUNTER) directly after freeze-thaw. It counts as cell-based, Human. The following applies: directly after thawing, FIG. 6. The method, then:
200 μL of cell suspension was pipetted into 1.5 mL Eppendorf tube and diluted with medium. Diluted suspension was then pipetted with VIAL-[…]™ and inserted into the NUCLEOCOUNTER® for measurement.
as §1, §2
Next, we compared two methods for determining viability and noticed a large discrepancy in obtained results (FIG. 5 and FIG. 6). The reason for this is the difference in underlying principles of viability assessment of both methods. As previously, DAPI/acridine orange staining is performed using NUCLEOCOUNTER®, which is an integrated fluorescence microscope with dual fluorescence channels. One is for staining with acridine orange and the other with DAPI dye. They both bind to DNA and label cellular nuclei with high specificity. Acridine orange can permeate the cell membrane and is used for cell detection, while DAPI cannot permeate the membrane and binds only to nuclei of dead cells with disrupted membrane. Thus, the cell viability according to the DAPI/acridine orange method, is mostly based on the integrity of cell membranes. Dyes are fluorescent and therefore visible when using fluorescence filters in microscope, while cell debris and other particles without DNA are not visible. The software then identifies and analyses the individual cells (even within smaller aggregates) and calculates the viability, by comparing the ratio of signal with Acridine Orange and DAPI staining (according to equation below).

In the case of `OCCO` [ethylene glycol, Ethylene glycol], the “densities of plated cells after thawing, 1M ethylene glycol vs 1M propylene glycol” value in data set [1] (1M, FIG. 8B) is listed as “not significantly different”. The “cell density after thawing vs propylene glycol, ANOVA and t-test” value in data set [1] (formulation in medium, P<0.05) is recorded as “significantly worse than propylene glycol”. In addition, the “cell viability after freeze-thawing on decreasing the concentration of PBS” value in data set [1] is “decrease in cell viability”.

Take `OCC(O)CO` [glycerol, Glycerol]: in data set [1] (glycerol formulation in medium, FIG. 8A), the “cell density after freeze-thaw compared with 5% DMSO formulation in medium” value is given as “not significantly worse than 5% DMSO formulation”.

`CC(O)CO` (centres unmarked) [propylene glycol, Propylene glycol]: the appearance of lyophilizate result in data set [2] is “remained in liquid form”. For the same compound, the “viability after FT of cells (DAPI/acridine testing)” value is reported as “around 50%” in data set [3] (0.1M propylene glycol), “around 50%” in data set [3] (0.2M propylene glycol), approximately 100% in data set [3] (1M propylene glycol) and approximately 100% in data set [3] (2M propylene glycol). Moreover, in data set [1] (1M concentration, FIG. 7B), the “optimisation of propylene glycol concentration, viability by ALAMARBLUE” value is given as “most favourable”. The “relative viability to control (untreated cells) after freeze thawing” value in data set [1] (5% (v/v) in cell medium, FIG. 7A) is “efficient in protecting the cells compared to other tested excipients”. For the same compound, in data set [1] (after FT, compared with DAPI/acridine results, FIG. 5), the “cell viability of treated cells relative to untreated cells (metabolic assay)” value was “much lower cell viability”. Further, the “cell viability after freeze-thawing on decreasing the concentration of PBS” value in data set [1] is “decrease in cell viability”.

Consider `C[S+](C)[O-]` [DMSO, Dimethyl Sulfoxide, reference compound], for which the “cell viability compared to the untreated control” value in data set [1] (5% DMSO, internal data) is “over 80%”.
